# According to PubChem BioAssay (NCI):
#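 The compound was tested at five concentrations on cells cultured in 96-well plates, with a 48-hour exposure period. Here, GI50 denotes the concentration required for 50% inhibition of growth. At the TGI there is no net growth.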
# Experiments:
# Experiment in all cases: NCI-60 cell line screen, 48 h
# [1] = test system: 786-0 renal
# [2] = test system: A498 renal
# [3] = test system: A549 NSCLC
# [4] = test system: ACHN renal
# [5] = test system: BT-549 breast
# [6] = test system: CAKI-1 renal
# [7] = test system: CCRF-CEM leukemia
# [8] = test system: COLO 205 colon
# [9] = test system: DU-145 prostate
# [10] = test system: EKVX NSCLC
# [11] = test system: HCC-2998 colon
# [12] = test system: HCT-116 colon
# [13] = test system: HCT-15 colon
# [14] = test system: HL-60(TB) leukemia
# [15] = test system: HOP-62 NSCLC
# [16] = test system: HOP-92 NSCLC
# [17] = test system: HS 578T breast
# [18] = test system: HT29 colon
# [19] = test system: IGROV1 ovarian
# [20] = test system: K-562 leukemia
# [21] = test system: KM12 colon
# [22] = test system: LOX IMVI melanoma
# [23] = test system: M14 melanoma
# [24] = test system: MALME-3M melanoma
# [25] = test system: MCF7 breast
# [26] = test system: MDA-MB-231 breast
# [27] = test system: MDA-MB-435
# [28] = test system: MOLT-4 leukemia
# [29] = test system: NCI-H226 lung
# [30] = test system: NCI-H23 lung
# [31] = test system: NCI-H460 lung
# [32] = test system: NCI-H522 lung
# [33] = test system: NCI/ADR-RES ovarian
# [34] = test system: OVCAR-3 ovarian
# [35] = test system: OVCAR-4 ovarian
# [36] = test system: OVCAR-5 ovarian
# [37] = test system: OVCAR-8 ovarian
# [38] = test system: PC-3 prostate
# [39] = test system: RPMI-8226 leukemia
# [40] = test system: RXF 393 renal
# [41] = test system: SF-268 CNS
# [42] = test system: SF-295 CNS
# [43] = test system: SF-539 CNS
# [44] = test system: SK-MEL-2 melanoma
# [45] = test system: SK-MEL-28 melanoma
# [46] = test system: SK-MEL-5 melanoma
# [47] = test system: SK-OV-3 ovarian
# [48] = test system: SN12C renal
# [49] = test system: SNB-19 CNS
# [50] = test system: SNB-75 CNS
# [51] = test system: SR leukemia
# [52] = test system: SW-620 colon
# [53] = test system: T-47D breast
# [54] = test system: TK-10 renal
# [55] = test system: U251 CNS
# [56] = test system: UACC-257 melanoma
# [57] = test system: UACC-62 melanoma
# [58] = test system: UO-31 renal
compound,measurement,setting,value
COc1cc2ncn(-c3cc(OCc4cccs4)c(C(N)=O)s3)c2cc1OC,GI50,[1],4.86 µM
same,TGI,[1],> 25 µM
same,GI50,[2],1.25 µM
same,TGI,[2],16.9 µM
same,GI50,[3],1.87 µM
same,TGI,[3],> 17.5 µM
same,GI50,[4],6.39 µM
same,TGI,[4],> 25 µM
same,GI50,[5],4.67 µM
same,TGI,[5],> 25 µM
same,GI50,[6],8.49 µM
same,TGI,[6],> 25 µM
same,GI50,[7],0.806 µM
same,TGI,[7],> 25 µM
same,GI50,[8],1.11 µM
same,TGI,[8],> 13.9 µM
same,GI50,[9],0.935 µM
same,TGI,[9],> 8.22 µM
same,GI50,[10],7.93 µM
same,TGI,[10],> 25 µM
same,GI50,[11],2.29 µM
same,TGI,[11],> 25 µM
same,GI50,[12],1.68 µM
same,TGI,[12],> 25 µM
same,GI50,[13],1.64 µM
same,TGI,[13],> 25 µM
same,GI50,[14],0.804 µM
same,TGI,[14],8.73 µM
same,GI50,[15],1.53 µM
same,TGI,[15],> 25 µM
same,GI50,[16],4.38 µM
same,TGI,[16],> 22 µM
same,GI50,[17],5.94 µM
same,TGI,[17],> 25 µM
same,GI50,[18],0.875 µM
same,TGI,[18],> 25 µM
same,GI50,[19],2.75 µM
same,TGI,[19],> 25 µM
same,GI50,[20],1.14 µM
same,TGI,[20],> 25 µM
same,GI50,[21],0.772 µM
same,TGI,[21],> 17.5 µM
same,GI50,[22],1.19 µM
same,TGI,[22],> 19.2 µM
same,GI50,[23],1.82 µM
same,TGI,[23],> 17.3 µM
same,GI50,[24],2.5 µM
same,TGI,[24],> 25 µM
same,GI50,[25],0.752 µM
same,TGI,[25],> 12.5 µM
same,GI50,[26],2.21 µM
same,TGI,[26],> 21.2 µM
same,GI50,[27],0.502 µM
same,TGI,[27],1.71 µM
same,GI50,[28],1.07 µM
same,TGI,[28],> 25 µM
same,GI50,[29],7.13 µM
same,TGI,[29],> 25 µM
same,GI50,[30],1.24 µM
same,TGI,[30],> 25 µM
same,GI50,[31],1.06 µM
same,TGI,[31],> 10.5 µM
same,GI50,[32],0.924 µM
same,TGI,[32],> 12.5 µM
same,GI50,[33],2.22 µM
same,TGI,[33],> 25 µM
same,GI50,[34],0.828 µM
same,TGI,[34],> 6.89 µM
same,GI50,[35],7.97 µM
same,TGI,[35],> 25 µM
same,GI50,[36],2.55 µM
same,TGI,[36],> 25 µM
same,GI50,[37],1.52 µM
same,TGI,[37],> 17 µM
same,GI50,[38],3.43 µM
same,TGI,[38],> 25 µM
same,GI50,[39],3.24 µM
same,TGI,[39],> 25 µM
same,GI50,[40],1.31 µM
same,TGI,[40],> 15.7 µM
same,GI50,[41],1.95 µM
same,TGI,[41],> 25 µM
same,GI50,[42],1.59 µM
same,TGI,[42],> 25 µM
same,GI50,[43],1.23 µM
same,TGI,[43],> 16.8 µM
same,GI50,[44],2.08 µM
same,TGI,[44],17 µM
same,GI50,[45],7.62 µM
same,TGI,[45],> 25 µM
same,GI50,[46],1.94 µM
same,TGI,[46],> 25 µM
same,GI50,[47],1.81 µM
same,TGI,[47],> 20 µM
same,GI50,[48],2.8 µM
same,TGI,[48],> 25 µM
same,GI50,[49],3.25 µM
same,TGI,[49],> 25 µM
same,GI50,[50],5.72 µM
same,TGI,[50],> 22.4 µM
same,GI50,[51],1.48 µM
same,TGI,[51],> 25 µM
same,GI50,[52],1.04 µM
same,TGI,[52],> 20.3 µM
same,GI50,[53],6.4 µM
same,TGI,[53],> 25 µM
same,GI50,[54],9.21 µM
same,TGI,[54],> 25 µM
same,GI50,[55],1.48 µM
same,TGI,[55],> 25 µM
same,GI50,[56],3.15 µM
same,TGI,[56],> 25 µM
same,GI50,[57],1.33 µM
same,TGI,[57],> 16.8 µM
same,GI50,[58],2.77 µM
same,TGI,[58],> 25 µM
